From EPA's ToxValDB 9.5 (doi:10.2903/j.efsa.2008.152r) come the findings set out here.

SMILES strings stand for the structures. Where only a bound is given, the exact number is not on record here.

For one data set, the system named is Colinus virginianus. As to conditions: acute, oral, mortality.
The test system of another data set is Aphidius rhopalosiphi. Put plainly: LR50; higher = less toxic. As to conditions: not reported; mortality.
Another data set relates to Daphnia magna. To be noted: chronic/long-term; duration: 21 days; reproduction.
A further data set has as its system Pimephales promelas. To be noted: chronic/long-term; duration: 28 days; growth.
Another data set has as its system Apis mellifera. As to conditions: acute, mortality.
The next data set relates to Bibionidae. To be noted: chronic/long-term; duration: 28 days.
For a further data set, the system named is Canidae. To be noted: chronic; duration: 1 years; oral; Dog Other; clinical chemistry.

`NC(Cc1ncn[nH]1)C(=O)O` (configuration not stated) [1,2,4-Triazole-3-alanine] returned an LC50 with Colinus virginianus (diet) above 5000 mg/kg.
Usually NOAEL stands for the highest dose or exposure tested at which no adverse effect was seen. Take `FC(F)C(F)(F)OCC(Cn1cncn1)c1ccc(Cl)cc1Cl` (configuration not stated) [Tetraconazole]: the LR50 in the data set on Aphidius rhopalosiphi stood at 125 g/ha. Further, the NOEC with Anas platyrhynchos (reproductive) was 1.6 mg/kg-day; in the data set on Daphnia magna, 0.19 mg/L; with Pimephales promelas, 0.3 mg/L; in the data set with Bibionidae, 4.45 mg/L; with Tagia sp. (chronic/long-term, duration: 4 weeks) it was at most 8.2 mg/kg. The LC50 in the data set on Anas platyrhynchos (short-term, oral, feed, mortality) worked out at 55.5 mg/kg-day; in the data set with Tagia sp. (acute, duration: 14 days, mortality), 71 mg/kg. Besides, the LD50 is 1030 mg/kg-day in the data set with Rattus norvegicus (acute, mortality); 63 µg/piece in the data set with Apis mellifera (dermal); above 130 µg/piece with Apis mellifera (oral, unspecified); 132 mg/kg-day with Colinus virginianus. The NOAEL stood at 0.4 mg/kg-day in the data set on Rattus norvegicus (chronic, duration: 2 years, oral, diet, organ weight); 5 mg/kg-day with Rattus norvegicus (reproduction developmental, body weight); 3.6 mg/kg-day in the data set on Rattus norvegicus (reproduction developmental, reproduction); 2.95 mg/kg-day with Canidae.
